Values of other authors, collected in article PMC10608500 (Marine Drugs, 2023).
Like-named read-outs stand apart in the source and are kept apart here.

Key:
[1] = Table 1
[2] = tested on: CCRF-CEM human T lymphoblast cells; parameters: method as in PMID 34986303; settings: read-out: IC50 against CCRF-CEM cells
[3] = tested on: U937 human histiocytic lymphoma cells; parameters: method as in PMID 34986303; settings: read-out: IC50 against U937 cells
[4] = from Oscillatoria sp., ref Li, T et al. 20
[5] = from Oscillatoria agardhii, ref Murakami, M et al. 21

Substance: heptavalinamide A
- Activities ([1]; from Symploca sp., ref Suo, R et. al. 19): cytotoxic

Substance: amantamide B
- IC50 [2]: 5.6 µM
- IC50 [3]: 7.3 µM
- Activities [1, 4]: CXCR7 agonist, cytotoxic

Substance: sepiatocin
- Activities ([1]; from Sepia officinalis, ref Henry, J et al. 22): muscle contractile activity modulator (sepiatocin)

Substance: prenylagaramide A
- Activities [1, 5]: no biological activity

Substance: amantamide A
- IC50 [2]: 8.3 µM
- IC50 [3]: 6.1 µM
- Activities [1, 4]: CXCR7 agonist, cytotoxic

Substance: prenylagaramide B
- Activities [1, 5]: no biological activity
